Test system: Balb/c mice
Assay: Immunization of mice with detoxified TAT vaccine compositions; TAT-specific IgG by ELISA
Assay type: in vivo
Conditions: 2 subcutaneous injections D0, D21, 1 μg TAT antigen
Method: Vaccine compositions comprising, as antigen, a detoxified TAT III B protein are prepared. The TAT protein was detoxified by means of an alkylation reaction in an alkaline medium using iodoacetamide under the following conditions: number of micromoles of iodoacetamide=200×number of micromoles of TAT+number of micromoles of DTT. This detoxified protein and the method for preparing it are described in detail in application WO 99/33346, where it is identified under the term “carboxymethylated TAT”.
Immunizing doses having the following composition are the obtained:
Adult Balb/c mice and 1-week-old “newborn” Balb/c mice are provided and are divided up into groups of 6 to 8 (groups of young mice) or of 5 to 6 (groups of adult mice). Experiments are carried out with 2 subcutaneous injections of the same vaccine formulation at D0 and at D21. Blood samples are taken after the booster injection. The TAT-specific immunoglobulins are assayed by the ELISA technique. A total of 10 to 40 mice per formulation was tested in several independent experiments: for the DC-Chol: 27 adults, 38 newborns; for the aluminum oxyhydroxide: 18 adults, 22 newborns; for the emulsion: 10 adults and 16 newborns; and in saline solution: 10 adults and 15 newborns. […]

3β-[N-(N′,N′-dimethyl-aminoethane)carbamoyl]cholesterol [DCchol]
adjuvant effect on TAT-specific total IgG response (FIG. 1), in words (adult Balb/c mice): capable of increasing the immune response | adjuvant effect on TAT-specific total IgG response (FIG. 1), in words (newborn (1-week-old) Balb/c mice): capable of increasing the immune response
